Results published in US20260191835A1, “COMBINATIONS COMPRISING A MENIN-MLL INHIBITOR AND AT LEAST ONE OTHER THERAPEUTIC AGENT” (JANSSEN PHARMACEUTICA NV, priority 2022, published 2026).

Test system: OCI-AML3 cells
Test: In vitro proliferation (Cell Titer Glo, 6 days) of Compound 51 in combination with idarubicin or decitabine, OCI-AML3
Format: cell-based, human
Conditions: for combination effect on proliferation (cytotoxicity): OCI-AML3 (NPM1c)
Method: 3) In Vitro Proliferation—Menin-MLL Inhibitor in Combination with FLT3 Inhibitor (Gilteritinib or Midostaurin), DNA Intercalating Agent (Idarubicin) or Hypomethylating Agent (Decitabine)
The effect of Compound 51 in combination with gilteritinib, midostaurin, idarubicin or decitabine was determined in proliferation assays.
AML cell lines MOLM-13, OCI-AML3 and MV4-11 were purchased from DSMZ. MOLM-13 were grown in RPMI medium supplemented with 10% Fetal Bovine Serum (FBS) and 1% penicillin/streptomycin. MV4-11 cells were grown in IMDM medium supplemented with 10% FBS and 1% penicillin/streptomycin. OCI-AML3 cells were cultured in 80-90% alpha-MEM (with or without ribo- and deoxyribonucleosides)+10-20% FBS. All cell lines were cultured at 37° C. in 5% CO2 atmosphere.
AML cell lines (10-20×10^3 cells/well) were seeded in 96-well plates and grown for 6 days in serum (10%)-containing medium in the presence or absence of inhibitors at the indicated concentrations. Proliferation was analyzed by means of a Cell Titer Glo assay using the […] (Promega, Madison, WI, USA), according to the manufacturer's instructions. Data are mean with standard deviation from two to four independent experiments in technical triplicates.
R-based Biochemically Intuitive Generalized Loewe (BIGL) model implemented with a highest single agent (HSA) null model. Specifically, the BIGL methodology was applied to calculate drug-drug interactions (Van der Borght, K., Tourny, A., Bagdziunas, R. et al. BIGL: Biochemically Intuitive Generalized Loewe null model for prediction of the expected combined effect compatible with partial agonism and antagonism. Sci Rep 7, 17935 (2017); Thas, O., Tourny, A., Verbist, B., Hawinkel, S., Nazarov, M., Mutambanengwe, K., & Bijnens, L. Statistical detection of synergy: New methods and a comparative study. Pharmaceutical Statistics (2021)).
Synergy matrix results of the BIGL analysis of the cell line data with HSA as mean model calculated on the basis of the cellular metabolic activity using Cell Titer-Glo assay. Bootstrap confidence intervals are indicated. Effect sizes and their confidence intervals are shown. […] No significant average effect if zero is included in the interval.

Compound: CC(=O)N1CCC(CN2CC[C@@H](Cc3cn(-c4ccc(F)cc4C(=O)N(C)C(C)C)c4cncc(C)c34)C2)CC1 [Compound 51]
- Effect size (BIGL, HSA null model), OCI-AML3 Cell Proliferation (Compound 51 0.001 μm + Decitabine 0.0015 μM): −0.02
- Effect size (BIGL, HSA null model), OCI-AML3 Cell Proliferation (Compound 51 0.001 μm + Decitabine 0.015 μM): −0.06
- Effect size (BIGL, HSA null model), OCI-AML3 Cell Proliferation (Compound 51 0.001 μm + Decitabine 0.35 μM): −0.04
- Effect size (BIGL, HSA null model), OCI-AML3 Cell Proliferation (Compound 51 0.001 μm + Decitabine 3 μM): 0.01
- Effect size (BIGL, HSA null model), OCI-AML3 Cell Proliferation (Compound 51 0.001 μm + Decitabine 3.5 μM): −0.02
- Effect size (BIGL, HSA null model), OCI-AML3 Cell Proliferation (Compound 51 0.001 μm + Idarubicin 0.0005 μM): −0.02
- Effect size (BIGL, HSA null model), OCI-AML3 Cell Proliferation (Compound 51 0.001 μm + Idarubicin 0.00625 μM): 0
- Effect size (BIGL, HSA null model), OCI-AML3 Cell Proliferation (Compound 51 0.001 μm + Idarubicin 0.0125 μM): 0.02
- Effect size (BIGL, HSA null model), OCI-AML3 Cell Proliferation (Compound 51 0.001 μm + Idarubicin 0.025 μM): 0
- Effect size (BIGL, HSA null model), OCI-AML3 Cell Proliferation (Compound 51 0.001 μm + Idarubicin 0.05 μM): −0.01
- Effect size (BIGL, HSA null model), OCI-AML3 Cell Proliferation (Compound 51 0.001 μm + Idarubicin 0.5 μM): −0.01
- Effect size (BIGL, HSA null model), OCI-AML3 Cell Proliferation (Compound 51 0.01 μm + Decitabine 0.0015 μM): −0.01
- Effect size (BIGL, HSA null model), OCI-AML3 Cell Proliferation (Compound 51 0.01 μm + Decitabine 0.015 μM): −0.1
- Effect size (BIGL, HSA null model), OCI-AML3 Cell Proliferation (Compound 51 0.01 μm + Decitabine 0.35 μM): −0.07
- Effect size (BIGL, HSA null model), OCI-AML3 Cell Proliferation (Compound 51 0.01 μm + Decitabine 3 μM): 0
- Effect size (BIGL, HSA null model), OCI-AML3 Cell Proliferation (Compound 51 0.01 μm + Decitabine 3.5 μM): −0.02
- Effect size (BIGL, HSA null model), OCI-AML3 Cell Proliferation (Compound 51 0.01 μm + Idarubicin 0.0005 μM): 0.05
- Effect size (BIGL, HSA null model), OCI-AML3 Cell Proliferation (Compound 51 0.01 μm + Idarubicin 0.00625 μM): −0.02
- Effect size (BIGL, HSA null model), OCI-AML3 Cell Proliferation (Compound 51 0.01 μm + Idarubicin 0.0125 μM): 0.01
- Effect size (BIGL, HSA null model), OCI-AML3 Cell Proliferation (Compound 51 0.01 μm + Idarubicin 0.025 μM): 0
- Effect size (BIGL, HSA null model), OCI-AML3 Cell Proliferation (Compound 51 0.01 μm + Idarubicin 0.05 μM): −0.01
- Effect size (BIGL, HSA null model), OCI-AML3 Cell Proliferation (Compound 51 0.01 μm + Idarubicin 0.5 μM): −0.01
- Effect size (BIGL, HSA null model), OCI-AML3 Cell Proliferation (Compound 51 0.05 μm + Decitabine 0.0015 μM): 0
- Effect size (BIGL, HSA null model), OCI-AML3 Cell Proliferation (Compound 51 0.05 μm + Decitabine 0.015 μM): 0
- Effect size (BIGL, HSA null model), OCI-AML3 Cell Proliferation (Compound 51 0.05 μm + Decitabine 0.35 μM): −0.1
- Effect size (BIGL, HSA null model), OCI-AML3 Cell Proliferation (Compound 51 0.05 μm + Decitabine 3 μM): 0
- Effect size (BIGL, HSA null model), OCI-AML3 Cell Proliferation (Compound 51 0.05 μm + Decitabine 3.5 μM): −0.03
- Effect size (BIGL, HSA null model), OCI-AML3 Cell Proliferation (Compound 51 0.05 μm + Idarubicin 0.0005 μM): 0.04
- Effect size (BIGL, HSA null model), OCI-AML3 Cell Proliferation (Compound 51 0.05 μm + Idarubicin 0.00625 μM): −0.04
- Effect size (BIGL, HSA null model), OCI-AML3 Cell Proliferation (Compound 51 0.05 μm + Idarubicin 0.0125 μM): 0
- Effect size (BIGL, HSA null model), OCI-AML3 Cell Proliferation (Compound 51 0.05 μm + Idarubicin 0.025 μM): −0.01
- Effect size (BIGL, HSA null model), OCI-AML3 Cell Proliferation (Compound 51 0.05 μm + Idarubicin 0.05 μM): −0.01
- Effect size (BIGL, HSA null model), OCI-AML3 Cell Proliferation (Compound 51 0.05 μm + Idarubicin 0.5 μM): −0.01
- Effect size (BIGL, HSA null model), OCI-AML3 Cell Proliferation (Compound 51 0.1 μm + Decitabine 0.0015 μM): 0.01
- Effect size (BIGL, HSA null model), OCI-AML3 Cell Proliferation (Compound 51 0.1 μm + Decitabine 0.015 μM): 0.08
- Effect size (BIGL, HSA null model), OCI-AML3 Cell Proliferation (Compound 51 0.1 μm + Decitabine 0.35 μM): −0.07
- Effect size (BIGL, HSA null model), OCI-AML3 Cell Proliferation (Compound 51 0.1 μm + Decitabine 3 μM): 0
- Effect size (BIGL, HSA null model), OCI-AML3 Cell Proliferation (Compound 51 0.1 μm + Decitabine 3.5 μM): −0.02
- Effect size (BIGL, HSA null model), OCI-AML3 Cell Proliferation (Compound 51 0.1 μm + Idarubicin 0.0005 μM): 0.01
- Effect size (BIGL, HSA null model), OCI-AML3 Cell Proliferation (Compound 51 0.1 μm + Idarubicin 0.00625 μM): −0.05
- Effect size (BIGL, HSA null model), OCI-AML3 Cell Proliferation (Compound 51 0.1 μm + Idarubicin 0.0125 μM): 0
- Effect size (BIGL, HSA null model), OCI-AML3 Cell Proliferation (Compound 51 0.1 μm + Idarubicin 0.025 μM): 0
- Effect size (BIGL, HSA null model), OCI-AML3 Cell Proliferation (Compound 51 0.1 μm + Idarubicin 0.05 μM): −0.01
- Effect size (BIGL, HSA null model), OCI-AML3 Cell Proliferation (Compound 51 0.1 μm + Idarubicin 0.5 μM): −0.01
- Effect size (BIGL, HSA null model), OCI-AML3 Cell Proliferation (Compound 51 1 μm + Decitabine 0.0015 μM): 0.02
- Effect size (BIGL, HSA null model), OCI-AML3 Cell Proliferation (Compound 51 1 μm + Decitabine 0.015 μM): 0.13
- Effect size (BIGL, HSA null model), OCI-AML3 Cell Proliferation (Compound 51 1 μm + Decitabine 0.35 μM): 0.01
- Effect size (BIGL, HSA null model), OCI-AML3 Cell Proliferation (Compound 51 1 μm + Decitabine 3 μM): 0
- Effect size (BIGL, HSA null model), OCI-AML3 Cell Proliferation (Compound 51 1 μm + Decitabine 3.5 μM): −0.02
- Effect size (BIGL, HSA null model), OCI-AML3 Cell Proliferation (Compound 51 1 μm + Idarubicin 0.0005 μM): −0.03
- Effect size (BIGL, HSA null model), OCI-AML3 Cell Proliferation (Compound 51 1 μm + Idarubicin 0.00625 μM): −0.06
- Effect size (BIGL, HSA null model), OCI-AML3 Cell Proliferation (Compound 51 1 μm + Idarubicin 0.0125 μM): 0
- Effect size (BIGL, HSA null model), OCI-AML3 Cell Proliferation (Compound 51 1 μm + Idarubicin 0.025 μM): −0.01
- Effect size (BIGL, HSA null model), OCI-AML3 Cell Proliferation (Compound 51 1 μm + Idarubicin 0.05 μM): −0.01
- Effect size (BIGL, HSA null model), OCI-AML3 Cell Proliferation (Compound 51 1 μm + Idarubicin 0.5 μM): −0.01
- Effect size (BIGL, HSA null model), OCI-AML3 Cell Proliferation (Compound 51 10 μm + Decitabine 0.0015 μM): 0.01
- Effect size (BIGL, HSA null model), OCI-AML3 Cell Proliferation (Compound 51 10 μm + Decitabine 0.015 μM): 0.1
- Effect size (BIGL, HSA null model), OCI-AML3 Cell Proliferation (Compound 51 10 μm + Decitabine 0.35 μM): −0.02
- Effect size (BIGL, HSA null model), OCI-AML3 Cell Proliferation (Compound 51 10 μm + Decitabine 3 μM): 0.01
- Effect size (BIGL, HSA null model), OCI-AML3 Cell Proliferation (Compound 51 10 μm + Decitabine 3.5 μM): −0.01
- Effect size (BIGL, HSA null model), OCI-AML3 Cell Proliferation (Compound 51 10 μm + Idarubicin 0.0005 μM): 0.04
- Effect size (BIGL, HSA null model), OCI-AML3 Cell Proliferation (Compound 51 10 μm + Idarubicin 0.00625 μM): −0.06
- Effect size (BIGL, HSA null model), OCI-AML3 Cell Proliferation (Compound 51 10 μm + Idarubicin 0.0125 μM): 0
- Effect size (BIGL, HSA null model), OCI-AML3 Cell Proliferation (Compound 51 10 μm + Idarubicin 0.025 μM): −0.01
- Effect size (BIGL, HSA null model), OCI-AML3 Cell Proliferation (Compound 51 10 μm + Idarubicin 0.05 μM): −0.01
- Effect size (BIGL, HSA null model), OCI-AML3 Cell Proliferation (Compound 51 10 μm + Idarubicin 0.5 μM): −0.01
- combination effect on proliferation (cytotoxicity) (in combination with decitabine, 6-day CellTiter-Glo matrix): not antagonistically cytotoxic
- combination effect on proliferation (cytotoxicity) (in combination with idarubicin, 6-day Cell Titer-Glo matrix): not antagonistically cytotoxic
